Experimental data reported in PubChem BioAssay (NCI).
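48-hour exposure; five concentrations; linearly interpolated endpoints. TGI: total growth inhibition.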

Tests used:
Experiment in all cases: NCI anticancer screen, dose series, 48 h
KM12 colon = system: KM12 colon
SK-MEL-5 melanoma = system: SK-MEL-5 melanoma
UO-31 renal = system: UO-31 renal
UACC-62 melanoma = system: UACC-62 melanoma
HT29 colon = system: HT29 colon
SK-MEL-28 melanoma = system: SK-MEL-28 melanoma
TK-10 renal = system: TK-10 renal
ACHN renal = system: ACHN renal
DU-145 prostate = system: DU-145 prostate
LOX IMVI melanoma = system: LOX IMVI melanoma
A549 NSCLC = system: A549 NSCLC
RXF 393 renal = system: RXF 393 renal
IGROV1 ovarian = system: IGROV1 ovarian
HCT-15 colon = system: HCT-15 colon
OVCAR-4 ovarian = system: OVCAR-4 ovarian
MOLT-4 leukemia = system: MOLT-4 leukemia
SNB-75 CNS = system: SNB-75 CNS
HS 578T breast = system: HS 578T breast
MDA-MB-435 = system: MDA-MB-435
BT-549 breast = system: BT-549 breast
NCI/ADR-RES ovarian = system: NCI/ADR-RES ovarian
SW-620 colon = system: SW-620 colon
SF-539 CNS = system: SF-539 CNS
OVCAR-5 ovarian = system: OVCAR-5 ovarian
HCT-116 colon = system: HCT-116 colon
A498 renal = system: A498 renal
HOP-92 NSCLC = system: HOP-92 NSCLC
CAKI-1 renal = system: CAKI-1 renal
SNB-19 CNS = system: SNB-19 CNS
SR leukemia = system: SR leukemia
HCC-2998 colon = system: HCC-2998 colon
SK-OV-3 ovarian = system: SK-OV-3 ovarian
NCI-H23 lung = system: NCI-H23 lung
UACC-257 melanoma = system: UACC-257 melanoma
HOP-62 NSCLC = system: HOP-62 NSCLC
NCI-H522 lung = system: NCI-H522 lung
COLO 205 colon = system: COLO 205 colon
HL-60(TB) leukemia = system: HL-60(TB) leukemia
SF-268 CNS = system: SF-268 CNS
SF-295 CNS = system: SF-295 CNS
MALME-3M melanoma = system: MALME-3M melanoma
K-562 leukemia = system: K-562 leukemia
786-0 renal = system: 786-0 renal
RPMI-8226 leukemia = system: RPMI-8226 leukemia
T-47D breast = system: T-47D breast
OVCAR-3 ovarian = system: OVCAR-3 ovarian
MCF7 breast = system: MCF7 breast
PC-3 prostate = system: PC-3 prostate
EKVX NSCLC = system: EKVX NSCLC
M14 melanoma = system: M14 melanoma
MDA-MB-231 breast = system: MDA-MB-231 breast
U251 CNS = system: U251 CNS
NCI-H226 lung = system: NCI-H226 lung
NCI-H460 lung = system: NCI-H460 lung
OVCAR-8 ovarian = system: OVCAR-8 ovarian
SK-MEL-2 melanoma = system: SK-MEL-2 melanoma
SN12C renal = system: SN12C renal
MDA-N = system: MDA-N
CCRF-CEM leukemia = system: CCRF-CEM leukemia

COc1ccc(C2/C(=C(\O)c3ccccc3)C(=O)C(O)(CC(=O)c3ccccc3)N2c2ccc(OC)cc2)cc1 (stereo unspecified)
TGI (KM12 colon): 36.9 µM | TGI (SK-MEL-5 melanoma): 29.2 µM | TGI (UO-31 renal): 32.6 µM | TGI (UACC-62 melanoma): > 100 µM | TGI (HT29 colon): > 100 µM | TGI (SK-MEL-28 melanoma): > 86.4 µM | TGI (TK-10 renal): > 100 µM | TGI (ACHN renal): 68.8 µM | TGI (DU-145 prostate): > 100 µM | TGI (LOX IMVI melanoma): 39.2 µM | TGI (A549 NSCLC): > 100 µM | TGI (RXF 393 renal): > 85.1 µM | TGI (IGROV1 ovarian): > 77.7 µM | TGI (HCT-15 colon): 37.2 µM | TGI (OVCAR-4 ovarian): > 100 µM | TGI (MOLT-4 leukemia): 54 µM | TGI (SNB-75 CNS): > 100 µM | TGI (HS 578T breast): > 100 µM | TGI (MDA-MB-435): 47.7 µM | TGI (BT-549 breast): > 56.8 µM | TGI (NCI/ADR-RES ovarian): 54.7 µM | TGI (SW-620 colon): > 56.6 µM | TGI (SF-539 CNS): 59.3 µM | TGI (OVCAR-5 ovarian): > 100 µM | TGI (HCT-116 colon): 39.8 µM | TGI (A498 renal): > 100 µM | TGI (HOP-92 NSCLC): 32.5 µM | TGI (CAKI-1 renal): > 75.8 µM | TGI (SNB-19 CNS): > 100 µM | TGI (SR leukemia): 14.3 µM | TGI (HCC-2998 colon): > 47.7 µM | TGI (SK-OV-3 ovarian): 99.3 µM | TGI (NCI-H23 lung): > 100 µM | TGI (UACC-257 melanoma): 31.9 µM | TGI (HOP-62 NSCLC): > 100 µM | TGI (NCI-H522 lung): 20.5 µM | TGI (COLO 205 colon): 38.8 µM | TGI (HL-60(TB) leukemia): 28.7 µM | TGI (SF-268 CNS): > 100 µM | TGI (SF-295 CNS): > 100 µM | TGI (MALME-3M melanoma): 75.7 µM | TGI (K-562 leukemia): 58.8 µM | TGI (786-0 renal): 46.7 µM | TGI (RPMI-8226 leukemia): 14.8 µM | TGI (T-47D breast): 98 µM | TGI (OVCAR-3 ovarian): 26.2 µM | TGI (MCF7 breast): > 88.5 µM | TGI (PC-3 prostate): > 81.6 µM | TGI (EKVX NSCLC): > 100 µM | TGI (M14 melanoma): 99.6 µM | TGI (MDA-MB-231 breast): 50.9 µM | TGI (U251 CNS): > 64.3 µM | TGI (NCI-H226 lung): 66.3 µM | TGI (NCI-H460 lung): > 84.8 µM | TGI (OVCAR-8 ovarian): > 100 µM | TGI (SK-MEL-2 melanoma): 41.4 µM | TGI (SN12C renal): 85.5 µM | TGI (MDA-N): 82.5 µM | TGI (CCRF-CEM leukemia): 14.5 µM

CCCCC(=O)OC[n+]1cccc(-c2c(COC(=O)NC(C)C)c(COC(=O)NC(C)C)c3n2CCC3)c1
TGI (KM12 colon): > 100 µM | TGI (SK-MEL-5 melanoma): > 100 µM | TGI (UO-31 renal): 71.7 µM | TGI (UACC-62 melanoma): 60.7 µM | TGI (HT29 colon): > 100 µM | TGI (SK-MEL-28 melanoma): > 100 µM | TGI (TK-10 renal): > 100 µM | TGI (ACHN renal): 82.8 µM | TGI (DU-145 prostate): 71.6 µM | TGI (LOX IMVI melanoma): > 65.9 µM | TGI (A549 NSCLC): > 100 µM | TGI (RXF 393 renal): 55.2 µM | TGI (IGROV1 ovarian): > 100 µM | TGI (HCT-15 colon): > 100 µM | TGI (OVCAR-4 ovarian): > 92.6 µM | TGI (MOLT-4 leukemia): > 100 µM | TGI (SNB-75 CNS): > 100 µM | TGI (HS 578T breast): > 100 µM | TGI (MDA-MB-435): > 100 µM | TGI (BT-549 breast): > 100 µM | TGI (NCI/ADR-RES ovarian): > 100 µM | TGI (SW-620 colon): > 100 µM | TGI (SF-539 CNS): > 76 µM | TGI (OVCAR-5 ovarian): > 100 µM | TGI (HCT-116 colon): > 100 µM | TGI (A498 renal): 49.2 µM | TGI (HOP-92 NSCLC): 77.2 µM | TGI (CAKI-1 renal): 56 µM | TGI (SNB-19 CNS): > 100 µM | TGI (SR leukemia): 52.3 µM | TGI (HCC-2998 colon): > 100 µM | TGI (SK-OV-3 ovarian): > 100 µM | TGI (NCI-H23 lung): 98.7 µM | TGI (UACC-257 melanoma): > 100 µM | TGI (HOP-62 NSCLC): > 100 µM | TGI (NCI-H522 lung): 49.4 µM | TGI (COLO 205 colon): > 100 µM | TGI (HL-60(TB) leukemia): > 81.9 µM | TGI (SF-268 CNS): > 81.5 µM | TGI (SF-295 CNS): > 100 µM | TGI (MALME-3M melanoma): > 100 µM | TGI (K-562 leukemia): > 100 µM | TGI (786-0 renal): > 85 µM | TGI (RPMI-8226 leukemia): > 100 µM | TGI (T-47D breast): > 100 µM | TGI (OVCAR-3 ovarian): > 100 µM | TGI (MCF7 breast): > 100 µM | TGI (PC-3 prostate): > 100 µM | TGI (EKVX NSCLC): > 100 µM | TGI (M14 melanoma): > 100 µM | TGI (MDA-MB-231 breast): > 100 µM | TGI (U251 CNS): > 100 µM | TGI (NCI-H226 lung): > 100 µM | TGI (NCI-H460 lung): > 100 µM | TGI (OVCAR-8 ovarian): > 100 µM | TGI (SK-MEL-2 melanoma): 70.6 µM | TGI (SN12C renal): > 100 µM | TGI (MDA-N): > 100 µM | TGI (CCRF-CEM leukemia): > 77.4 µM

CCOC(=O)NC(Nc1ccc(OC(F)(F)F)cc1)(C(F)(F)F)C(F)(F)F
TGI (KM12 colon): > 100 µM | TGI (SK-MEL-5 melanoma): > 100 µM | TGI (UO-31 renal): > 100 µM | TGI (UACC-62 melanoma): > 100 µM | TGI (HT29 colon): > 100 µM | TGI (SK-MEL-28 melanoma): > 100 µM | TGI (TK-10 renal): > 100 µM | TGI (ACHN renal): > 100 µM | TGI (DU-145 prostate): > 100 µM | TGI (LOX IMVI melanoma): > 100 µM | TGI (A549 NSCLC): > 100 µM | TGI (RXF 393 renal): > 100 µM | TGI (IGROV1 ovarian): > 100 µM | TGI (HCT-15 colon): > 100 µM | TGI (MOLT-4 leukemia): > 100 µM | TGI (SNB-75 CNS): > 100 µM | TGI (HS 578T breast): > 100 µM | TGI (MDA-MB-435): > 100 µM | TGI (BT-549 breast): > 100 µM | TGI (NCI/ADR-RES ovarian): > 100 µM | TGI (SW-620 colon): > 100 µM | TGI (SF-539 CNS): > 100 µM | TGI (OVCAR-5 ovarian): > 100 µM | TGI (HCT-116 colon): > 100 µM | TGI (A498 renal): > 100 µM | TGI (HOP-92 NSCLC): > 100 µM | TGI (CAKI-1 renal): > 100 µM | TGI (SNB-19 CNS): > 100 µM | TGI (SR leukemia): > 100 µM | TGI (HCC-2998 colon): > 100 µM | TGI (SK-OV-3 ovarian): > 100 µM | TGI (NCI-H23 lung): > 100 µM | TGI (UACC-257 melanoma): > 100 µM | TGI (HOP-62 NSCLC): > 100 µM | TGI (NCI-H522 lung): > 100 µM | TGI (COLO 205 colon): > 100 µM | TGI (HL-60(TB) leukemia): > 100 µM | TGI (SF-268 CNS): > 100 µM | TGI (SF-295 CNS): > 100 µM | TGI (MALME-3M melanoma): > 100 µM | TGI (K-562 leukemia): > 100 µM | TGI (786-0 renal): > 100 µM | TGI (RPMI-8226 leukemia): > 100 µM | TGI (T-47D breast): > 100 µM | TGI (OVCAR-3 ovarian): > 100 µM | TGI (MCF7 breast): > 100 µM | TGI (PC-3 prostate): > 100 µM | TGI (EKVX NSCLC): > 100 µM | TGI (M14 melanoma): > 100 µM | TGI (MDA-MB-231 breast): > 100 µM | TGI (U251 CNS): > 100 µM | TGI (NCI-H226 lung): > 100 µM | TGI (NCI-H460 lung): > 100 µM | TGI (OVCAR-8 ovarian): > 100 µM | TGI (SK-MEL-2 melanoma): > 100 µM | TGI (SN12C renal): > 100 µM | TGI (MDA-N): > 100 µM | TGI (CCRF-CEM leukemia): > 100 µM
